The values that follow come from patent publication US20110171193A1, “COMPOSITIONS AND METHODS FOR TREATING PULMONARY HYPERTENSION” (THE BOARD OF TRUSTEES OF THE UNIVERSITY OF ILLINOIS, priority 2008, published 2011).

Changes are numbered by the printed parent chain. “Also recorded” adds a separate entry of the source.

In test [1] the target is T1, purified PKG-1 (Bos taurus, UniProt P00516).
T1 construct: purchased Promega
T1 sequence (P00516 1-671): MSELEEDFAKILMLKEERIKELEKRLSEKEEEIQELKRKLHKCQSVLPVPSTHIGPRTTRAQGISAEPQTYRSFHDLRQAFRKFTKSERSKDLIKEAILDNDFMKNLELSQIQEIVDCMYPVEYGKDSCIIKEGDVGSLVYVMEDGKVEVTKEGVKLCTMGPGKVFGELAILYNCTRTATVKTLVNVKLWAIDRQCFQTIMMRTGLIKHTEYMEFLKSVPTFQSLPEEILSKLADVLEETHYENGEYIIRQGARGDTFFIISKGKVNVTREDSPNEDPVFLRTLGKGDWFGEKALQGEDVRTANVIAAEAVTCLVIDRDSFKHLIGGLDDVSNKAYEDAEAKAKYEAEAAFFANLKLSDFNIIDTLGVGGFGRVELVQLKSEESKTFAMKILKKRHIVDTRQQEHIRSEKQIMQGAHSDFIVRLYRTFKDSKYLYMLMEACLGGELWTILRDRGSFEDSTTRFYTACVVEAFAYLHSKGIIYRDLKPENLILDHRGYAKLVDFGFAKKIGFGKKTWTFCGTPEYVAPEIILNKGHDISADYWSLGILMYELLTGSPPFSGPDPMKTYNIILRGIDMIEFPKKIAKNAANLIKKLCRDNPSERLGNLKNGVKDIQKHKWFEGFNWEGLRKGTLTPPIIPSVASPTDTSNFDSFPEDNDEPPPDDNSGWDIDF
Kind of test: In vitro kinase assay of purified PKG-1 after peroxynitrite or DETA NONOate. It is filed as biochemical. The note with it: even at 100 μM, 30 min in dark at RT. The procedure: (§1) PKG Kinase Assay. In vitro activity of PKG was determined by measuring the transfer of the [g-^32P] phosphate group of ATP to the specific PKG substrate, BPDEtide (Calbiochem) in the absence or presence of exogenous 2.5 mM cGMP as described in Example 13. PKG activity is expressed as picmoles of ^32P incorporated into PKG substrate per min per microgram protein.
To address the role of peroxynitrite in the mechanism of the observed impairment of PKG activity, we treated human pulmonary artery smooth muscle cells with 3-morpholinosydnonimine (SIN-1), the superoxide and NO donor that forms peroxynitrite simultaneously (30). […] FIG. 9A relates to dose-dependent impairment of PKG activity by peroxynitrite. Purified […] (Promega) was incubated with peroxynitrite at indicated concentrations for 14 min at RT or with DETA NONOate (NONOate) for 30 min in dark at RT. Kinase activity was then assayed. Data is expressed mean+/−SD (n=3). *, P<0.05 versus control (0 μM). FIG. 9B relates to screening of PKG-1a mutants with in vitro kinase assay. At 48 hr post-transfection, myc-tagged WT and PKG-1a mutants were immunoprecipitated with anti-myc beads and aliquoted for incubation with either peroxynitrite (100 μM) or the same amount of 0.1 N NaOH only (CTL). […] PKG activity was expressed as pmoles/min/μg cell lysates. […] Data are expressed as mean±SD (n=3), *, P<0.05 versus either PKG-1a mutant. […]

The target in test [2] is T2, PKG (Homo sapiens, UniProt Q13976).
T2 construct: endogenous in cells; host or cells: primary human pulmonary artery smooth muscle cells
T2 sequence (Q13976 1-671): T1 sequence (P00516 1-671) with K265T, N275S
The experiment in a line: PKG kinase activity in human pulmonary artery smooth muscle cells after SIN-1. It is filed as cell-based. The procedure:
In vitro activity of PKG was determined by measuring the transfer of the [g-32P] phosphate group of ATP to the specific PKG substrate, BPDEtide (Calbiochem) in the absence or presence of exogenous 2.5 mM cGMP. The assay was carried out in a total volume of […] containing 150 mM BPDEtide, 10 mM HEPES, 35 mM b-glycerophosphate, 4 mM magnesium acetate, 5 mM PKI (a synthetic protein kinase A inhibitor, Calbiochem), 0.5 mM EDTA, 200 mM ATP, and 2 mCi of [g-32P]ATP (specific activity 3,000 Ci/mmol, GE Amersham). The mixture was incubated at […] for 12 min and terminated by spotting […] aliquots of mixture on phosphocellulose papers (P81, Whatman). The papers were then washed and counted in a liquid scintillation counter. PKG activity is expressed as picmoles of 32P incorporated into PKG substrate per minute per milligram protein.
(§2) To test the hypothesis that peroxynitrite modifies PKG through tyrosine nitration thereby impairing kinase activity, we treated subconfluent human pulmonary artery smooth muscle cells with 3-morpholinosydnonimine (SIN-1), a donor of superoxide and NO, which spontaneously forms peroxynitrite at the two concentrations used. […] Each cell lysate (50 mg) was used for immunoprecipitation with an anti-PKG-I antibody and tyrosine nitration of PKG-I was detected by Western blot with anti-nitrotyrosine antibody (NT). Each lysate (15 mg) was used for direct immunoblotting with anti-PKG-I and anti-GAPDH, respectively. CTL, control. […] Data are shown as mean±SD (n=3). *, P<0.001 versus CTL; **, P<0.001 versus CTL.
as §1

In test [3] the target is T3, PKG-I (Homo sapiens, UniProt Q13976).
T3 construct: primary cultures of human pulmonary artery smooth muscle cells were immunoprecipitated overnight with anti-PKG-I; endogenous in cells; host or cells: primary human pulmonary artery smooth muscle cells
T3 sequence (Q13976 1-671): T1 sequence (P00516 1-671) with K265T, N275S
The experiment in a line: PKG-I tyrosine nitration in human pulmonary artery smooth muscle cells after SIN-1 (IP / anti-nitrotyrosine Western blot). It is filed as cell-based. On the procedure: Western blot analyses were performed using anti-Cav1 (1:1000, Santa Cruz Biotechnology), anti-eNOS (1:1000, Upstate Biotechnology), and anti-PKG-I (1 mg/ml, a generous gift from Dr. X-P. Du at Department of Pharmacology, University of Illinois at Chicago). The same blots were reprobed with either anti-a-actin (1:400, Santa Cruz Biotechnology) or anti-GAPDH (1:2000, Santa Cruz Biotechnology) as a loading control. To detect PKG-I tyrosine nitration, protein lysates from either mouse lungs or primary cultures of human pulmonary artery smooth muscle cells were immunoprecipitated overnight with anti-PKG-I and then probed with anti-nitrotyrosine (1:2500, Cayman Chemical).
as §2
Molecular Analysis. […]
For orientation: Immunoblotting shows a protein as a band on a membrane.

The subject of test [4] is Cav1−/− mice. The experiment in a line: RVSP in Cav1−/− mice with PH. The note with it: 8 month old Cav1−/− mice; 5 mg/kg, i.p. daily for 6 wk. It is filed as in vivo, mouse. The procedure:
RVSP was determined as follows. Briefly, following anesthesia, mice were prepared for catheterization. A 1.4 F pressure transducer catheter (Millar Instruments) was carefully inserted via the right external jugular vein into the right ventricle to obtain measurements of RVSP using the Acknowledge software (Biopac Systems, Inc.). To determine lung vascular resistance, mice were anesthetized and prepared for perfusion. Pulmonary arterial (Ppa) and venous (Pv) pressures were monitored continuously through the pulmonary arterial and left atrial cannula, which were connected to a pressure transducer. […] Ppa was measured at steady-state and was plotted against the flow, which was measured by weighing the effluent collected over a one-minute period. […]
To determine whether pharmacological inhibition of eNOS in Cav1^−/− mice can reverse PH, we administered N-Nitro-L-Arginine Methyl Ester (L-NAME), a NOS inhibitor, to Cav1^−/− mice following onset of PH. […] Data are expressed as mean±SD (n=5-7). *, P=0.023 WT versus Cav1^−/−;**, P=0.015 Cav-L versus Cav1^−/−; #, P>0.5 Cav-D versus Cav1^−/−. […] Data are expressed as mean±SD (n=5-7). *, P=0.002 WT versus Cav1^−/−; **, P=0.013 Cav-L versus Cav1^−/−; #, P=0.8 Cav-D versus Cav1^−/−.
Hemodynamic Measurements. RVSP was determined with a 1.4 F pressure transducer catheter (Millar Instruments) and the Acknowledge software (Biopac Systems, Inc.). […]

As to `NCCN(CCN)/[N+]([O-])=N/O` [DETA NONOate], the PKG activity result in test [1] is “failed to suppress PKG activity”.
Turning to `N=c1c[n+](N2CCOCC2)[n-]o1` [SIN-1, 3-morpholinosydnonimine], the “PKG kinase activity after addition of cGMP” value in test [2] (SIN-1 30 min, after addition of 2.5 mM of cGMP) is recorded as “significant decrease of PKG activity; also recorded: significantly decreased PKG kinase activity; also recorded: impaired kinase activity”. In addition, the “PKG kinase activity, basal” value in test [2] (SIN-1 30 min, basal state) is “significant decrease of PKG activity; also recorded: significantly decreased PKG kinase activity; also recorded: impaired kinase activity”. For the same molecule, the PKG kinase activity result in test [2] (SIN-1 at 0.1 mM) is “did not decrease PKG kinase activity”. Also, the PKG tyrosine nitration entry in test [3] (SIN-1 at 0.1 mM) was “only minimal PKG tyrosine nitration”; in test [3] (SIN-1 concentration, 30 min) it was “significant PKG tyrosine nitration; also recorded: marked PKG tyrosine nitration; also recorded: PKG1 tyrosine nitration”.
Consider “manganese (III) tetrakis (1-methyl-4-pyridyl) porphyrin pentachloride [MnTMPyP]”, for which the RVSP entry in test [4] is listed as “reduced RVSP”.
